“Also recorded” adds a separate entry of the source.
Legend:
[1] = Dry grinding simulation experiments; assay type: physicochemical; settings: ground manually with mortar and pestle, 5 min
Method: About 10 mg of Form P was ground manually with a mortar and a pestle for 1, 3 and 5 minutes.
About 10 mg of Form C was ground manually with a mortar and a pestle for 5 minutes.

[2] = Wet granulation simulation experiments; assay type: physicochemical
Method: Water or ethanol was added drop wise to about 10 mg of Form P until the sample is wetted sufficiently. Wet sample was ground gently with in a mortar and a pestle. Post granulation sample was dried under ambient condition for 10 min.
Water or ethanol was added drop wise to about 10 mg of Form C until the sample is wetted sufficiently. Wet sample was ground gently with in a mortar and a pestle. Post granulation sample was dried under ambient condition for 5 min.

[3] = Form conversion kinetics from Form C to Form P; assay type: physicochemical
Method: To investigate form conversion kinetics from Form C to Form P, equilibration experiments with Form C in pH 1.2 HCl buffer, 2-MeTHF, heptane and water were conducted. In 2-MeTHF, Form C converted to Form P within 2 h at 25° C. In pH 1.2 HCl buffer, Form C converted to Form P after 31 h at 37° C. In heptane, Form C converted to Form P completely after 1 week at 25° C. In water, Form C converted to Form P completely after 4 days at 25° C.

[4] = Competitive water activity experiments; settings: whole range of water activity (0≤a.w.≤1)
[5] = Exposure to humidity or ambient condition; assay type: physicochemical
[6] = Equilibration with solvents; assay type: physicochemical
Method: Obtained suspensions were filtered through a 0.45 μm nylon membrane filter by centrifugation at 14,000 rpm. Solid parts (wet cakes) were investigated by XRPD. For samples with different XRPD patterns, additional analysis including DSC, TGA, ^1H-NMR were performed.
(§1) Obtained suspensions were filtered through a 0.45 μm nylon membrane filter by centrifugation at 14,000 rpm.
as §1

[7] = Form change on heating, dehydration or desolvation (TGA, DSC, variable temperature XRPD); assay type: physicochemical; settings: DSC thermogram and VT-XRPD
Method: Relative stability of the anhydrates Form R and Form P was investigated by variable temperature XRPD and competitive equilibration experiments.
Relative stability of the anhydrates Form B, Form X, Form Y and Form C was investigated by variable temperature XRPD. Form B converted to Form X, Form Y and Form C after heating to 150° C., 176° C. and 180° C., respectively.

[8] = system: LNCaP cells expressing ARR2PB-FireflyLuc and CMV-RenillaLuc; assay: LNCaP ARR2PB-FireflyLuc reporter assay; assay type: cell-based; settings: Homo sapiens, +/−0.5 nM DHT, 48 h at 37° C.
Method: LNCaP cells expressing ARR2PB-FireflyLuc and CMV-RenillaLuc were treated with indicated concentrations of the test compound, enzalutamide (negative control), or DHT (positive control)+/−0.5 nM DHT for 48 h at 37° C. […] signals were read with the ImageXpress Micro Confocal System. Remaining activity (antagonist mode) was calculated as % Remaining Activity=100×[(Readsample−LCave)/(HCave−LCave)] where HC is cells treated with 0.5 nM DHT only and LC is cells treated with 10 uM enzalutamide+0.5 nM DHT. Activation (agonist mode) was calculated as % Activation=100×[(ReadSample−LCave)/(HCave−LCave)] where HC is cells treated with 1 uM DHT and LC is cells treated with DMSO. Dose response curves and IC50 values were calculated using non-linear regression analysis in XLfit.

[9] = Competitive equilibration experiments; settings: 2-MeTHF
Method: Relative stability of the anhydrate Forms A, C, H and J was investigated with competitive equilibration experiments.
Relative stability of the anhydrates Forms C, K and L was investigated with competitive equilibration experiments.
Relative stability of the anhydrates Form C and Form P was systematically investigated with competitive equilibration experiments.
About 5 mg of Form C and about 5 mg of Form P were added to 0.25 mL of saturated solutions of selected solvents. Obtained suspensions were stirred at 25° C., 50° C. and 70° C. for 4 days, respectively. Solid parts (wet cakes) were isolated by centrifugation filtration and investigated by XRPD.
About 10 mg of Form C and about 10 mg of Form P were added to 0.5 mL saturated solutions of selected solvents. Obtained suspensions were stirred at 80/C and 90 C, respectively. Solid parts (wet cakes) were be isolated by centrifugation filtration and investigated by XRPD.
About 3 mg of the Form P and 3 mg of the mixture of Form P and Form J were added to 0.2 mL of saturated solutions of selected solvents. Obtained suspensions were stirred at 25° C., 50° C. and 70° C. for 4 days, respectively. Solid parts (wet cakes) were isolated by centrifugation filtration and investigated by XRPD.
About 3 mg of Form P and 3 mg of the physical mixture of Form P and Form R were added to 0.2 mL of saturated solutions of 2-MeTHF. Obtained suspensions were stirred at 25° C., 50° C. and 70° C., respectively. Solid parts (wet cakes) were isolated by centrifugation filtration and investigated by XRPD.
About 1.5 mg of Form P, 1.5 mg of Form X and 1.5 mg Form Y were added to 0.15 mL saturated solution of 2-MeTHF. Obtained suspensions were stirred at 25° C., 50° C. and 70° C., respectively. Solid parts (wet cake) were isolated by centrifugation filtration and investigated by XRPD.

For `Cc1nc(-c2c[nH]c3c(C#N)cccc23)cnc1OCC(C)(C)O` [Form C, 3-(5-(2-hydroxy-2-methylpropoxy)-6-methylpyrazin-2-yl)-1H-indole-7-carbonitrile], which “Comments (crystallinity)” value [1] is on record?
Its value is “Crystallinity decreased slightly”.

What about the XRPD [1] of the same compound?
The XRPD was “Form C”.

What about the “Comments (crystallinity)” value ([2]; granulation solvent Ethanol) of the same compound?
Its value is “Crystallinity decreased”.

What about the XRPD ([2]; granulation solvent Ethanol) of the same compound?
Its XRPD is “Form C”.

And the “Comments (crystallinity)” value ([2]; granulation solvent Water)?
Its value is “Crystallinity decreased slightly”.

What about the XRPD ([2]; granulation solvent Water) of the same compound?
Its XRPD is “Form C”.

And the “Time to conversion to Form P” value ([3]; 2-MeTHF, 25° C.)?
Its value is ≤ 2 h.

What about the “Time to complete conversion to Form P” value ([3]; heptane, 25° C.) of the same compound?
Its value is 1 week.

What about the “Time to conversion to Form P” value ([3]; pH 1.2 HCl buffer, 37° C.) of the same compound?
The value was 31 h.

What about the “Time to complete conversion to Form P” value ([3]; water, 25° C.) of the same compound?
Its value is 4 days.

What about the “Relative stability in water activity experiments” value [4] of the same compound?
Its value is “stable”.

With `Cc1nc(-c2c[nH]c3c(C#N)cccc23)cnc1OCC(C)(C)O` [Form V, 3-(5-(2-hydroxy-2-methylpropoxy)-6-methylpyrazin-2-yl)-1H-indole-7-carbonitrile] as the compound, how does the “Time to conversion to Form W” value ([5]; ambient condition (20° C.-27° C., 50% RH-70% RH)) read?
Its value is ≤ 12 h.

Which XRPD after equilibration ([6]; 2-MeTHF, 25° C.) does the source give for `Cc1nc(-c2c[nH]c3c(C#N)cccc23)cnc1OCC(C)(C)O` [Amorphous form, 3-(5-(2-hydroxy-2-methylpropoxy)-6-methylpyrazin-2-yl)-1H-indole-7-carbonitrile] here?
Its XRPD after equilibration is “Form P”.

What about the XRPD after equilibration ([6]; 2-MeTHF/heptane (v:v = 1:1), 25° C.) of the same compound?
The XRPD after equilibration was “Form P”.

And the XRPD after equilibration ([6]; 2-MeTHF/heptane (v:v = 3:1), 25° C.)?
The XRPD after equilibration was “Form P”.

And the XRPD after equilibration ([6]; 2-Propanol, 25° C.)?
Its XRPD after equilibration is “Form P”.

What about the XRPD after equilibration ([6]; Acetone, 25° C.) of the same compound?
The XRPD after equilibration was “Form P”.

And the XRPD after equilibration ([6]; Acetone/water (v:v = 30:70) a.w. = 0.92, 25° C.)?
Its XRPD after equilibration is “Form P”.

What about the XRPD after equilibration ([6]; Acetonitrile, 25° C.) of the same compound?
Its XRPD after equilibration is “Form P”.

What about the XRPD after equilibration ([6]; DMSO/water (v:v = 40:60) a.w. = 0.77, 25° C.) of the same compound?
Its XRPD after equilibration is “Form P”.

What about the XRPD after equilibration ([6]; Ethanol, 25° C.) of the same compound?
Its XRPD after equilibration is “Form P”.

And the XRPD after equilibration ([6]; Ethanol/water (v:v = 40:60) a.w. = 0.91, 25° C.)?
The XRPD after equilibration was “Form P”.

And the XRPD after equilibration ([6]; Ethyl acetate, 25° C.)?
The XRPD after equilibration was “Form P”.

And the XRPD after equilibration ([6]; Isopropyl acetate, 25° C.)?
Its XRPD after equilibration is “Form P”.

And the XRPD after equilibration ([6]; MEK, 25° C.)?
Its XRPD after equilibration is “Form P”.

And the XRPD after equilibration ([6]; MTBE, 25° C.)?
Its XRPD after equilibration is “Form P”.

And the XRPD after equilibration ([6]; Methanol, 25° C.)?
Its XRPD after equilibration is “Form B”.

And the XRPD after equilibration ([6]; THF, 25° C.)?
Its XRPD after equilibration is “Form I”.

And the XRPD after equilibration ([6]; Toluene, 25° C.)?
Its XRPD after equilibration is “Form C”.

What about the XRPD after equilibration ([6]; heptane, 25° C.) of the same compound?
The XRPD after equilibration was “Form C”.

What about the XRPD after equilibration ([6]; pH 1.2 HCl/KCl buffer, 25° C.) of the same compound?
Its XRPD after equilibration is “Form P”.

What about the XRPD after equilibration ([6]; water, 25° C.) of the same compound?
The XRPD after equilibration was “Form P”.

And the “Form after humidity exposure” value ([5]; exposure to high humidity)?
The value was “crystallized to Form N”.

For `Cc1nc(-c2c[nH]c3c(C#N)cccc23)cnc1OCC(C)(C)O` [Form K, 3-(5-(2-hydroxy-2-methylpropoxy)-6-methylpyrazin-2-yl)-1H-indole-7-carbonitrile], which “Form after melting and re-crystallization” value [7] is on record?
The value was “converts to Form L”.

What about the “Form after humidity exposure” value ([5]; 25° C./92% RH for 6 days) of the same compound?
Its value is “reverts back to Form B; also recorded: converts to hydrate Form B”.

Which IC50 [8] does the source give for `Cc1nc(-c2c[nH]c3c(C#N)cccc23)cnc1OCC(C)(C)O` [3-(5-(2-hydroxy-2-methylpropoxy)-6-methylpyrazin-2-yl)-1H-indole-7-carbonitrile] here?
The IC50 was 50 nM.

And the “XRPD after competitive equilibration” value ([9]; 25° C. for 3 days)?
Its value is “Form P”.

What about the “XRPD after competitive equilibration” value ([9]; 50° C. for 3 days) of the same compound?
The value was “Form P”.

And the “XRPD after competitive equilibration” value ([9]; 70° C. for 1 week)?
The value was “Form P”.

And the “XRPD after competitive equilibration” value ([9]; 70° C. for 3 days)?
The value was “Form P + one peak”.
